In PMC11842588, “A first-in-class selective inhibitor of ERK1/2 and ERK5 overcomes drug resistance with a single-molecule strategy” (Signal Transduction and Targeted Therapy, 2025):

What was measured:
Assay in all cases: Kinase profiling
Format in all cases: biochemical
PRK2(h) = biological target: T1, PRK2(h) (Homo sapiens, UniProt Q16513)
T1 construct: purchased Eurofins Cerep SA (KinaseProfiler)
Description: (§1) 380 kinases inhibitory activities of SKLB-D18 were conducted by Eurofins Cerep SA. The result was illustrated by kinase tree (http://www.kinhub.org/kinmap/).

DAPK2(h) = biological target: T2, DAPK2(h) (Homo sapiens, UniProt Q9UIK4)
T2 construct: purchased Eurofins Cerep SA (KinaseProfiler)
T2 sequence (Q9UIK4 whole entry): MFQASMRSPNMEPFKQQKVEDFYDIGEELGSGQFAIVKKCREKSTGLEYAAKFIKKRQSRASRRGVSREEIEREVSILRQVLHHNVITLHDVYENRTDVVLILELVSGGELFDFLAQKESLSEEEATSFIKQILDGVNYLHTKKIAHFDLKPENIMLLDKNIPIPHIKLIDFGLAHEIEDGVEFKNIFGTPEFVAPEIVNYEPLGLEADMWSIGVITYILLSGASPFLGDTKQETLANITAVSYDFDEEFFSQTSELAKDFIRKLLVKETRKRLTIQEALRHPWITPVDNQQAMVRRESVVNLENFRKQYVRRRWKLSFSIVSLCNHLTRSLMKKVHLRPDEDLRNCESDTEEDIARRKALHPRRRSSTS
Description: as §1

CDK16/cyclinY(h) = biological target: T3, CDK16/cyclinY(h) (Homo sapiens, UniProt Q00536)
T3 construct: purchased Eurofins Cerep SA (KinaseProfiler)
Description: as §1

GRK1(h) = biological target: T4, GRK1(h) (Homo sapiens, UniProt Q15835)
T4 construct: purchased Eurofins Cerep SA (KinaseProfiler)
Description: as §1

MATK(h) = biological target: T5, MATK(h) (Homo sapiens, UniProt P42679)
T5 construct: purchased Eurofins Cerep SA (KinaseProfiler)
Description: as §1

MSSK1(h) = biological target: T6, MSSK1(h) (Homo sapiens, UniProt Q9UPE1)
T6 construct: purchased Eurofins Cerep SA (KinaseProfiler)
T6 sequence (Q9UPE1 whole entry): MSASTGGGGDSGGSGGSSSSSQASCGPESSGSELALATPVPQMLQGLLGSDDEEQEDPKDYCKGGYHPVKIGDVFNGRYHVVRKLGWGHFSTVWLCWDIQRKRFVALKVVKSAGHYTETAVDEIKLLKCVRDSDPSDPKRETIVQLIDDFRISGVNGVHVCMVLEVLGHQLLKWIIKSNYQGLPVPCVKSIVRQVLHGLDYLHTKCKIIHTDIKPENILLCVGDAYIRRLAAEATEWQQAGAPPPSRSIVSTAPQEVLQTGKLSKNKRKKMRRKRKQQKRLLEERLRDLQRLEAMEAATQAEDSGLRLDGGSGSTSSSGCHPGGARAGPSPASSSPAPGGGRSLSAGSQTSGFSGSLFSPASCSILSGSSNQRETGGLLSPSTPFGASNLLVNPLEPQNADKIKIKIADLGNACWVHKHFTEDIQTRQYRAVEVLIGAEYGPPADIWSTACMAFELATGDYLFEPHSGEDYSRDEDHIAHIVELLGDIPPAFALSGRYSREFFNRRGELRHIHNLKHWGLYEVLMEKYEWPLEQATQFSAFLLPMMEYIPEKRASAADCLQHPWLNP
Description: as §1

SRPK2(h) = biological target: T7, SRPK2(h) (Homo sapiens, UniProt P78362)
T7 construct: purchased Eurofins Cerep SA (KinaseProfiler)
Description: as §1

[1] = biological target: T8, PI3 Kinase (p110a/p85a)(h) (Homo sapiens, UniProt P42336)
T8 construct: purchased Eurofins Cerep SA (KinaseProfiler)
Description: as §1

DCAMKL2(h) = biological target: T9, DCAMKL2(h) (Homo sapiens, UniProt Q8N568)
T9 construct: purchased Eurofins Cerep SA (KinaseProfiler)
Description: as §1

CDK5/p25(h) = biological target: T10, CDK5/p25(h) (Homo sapiens, UniProt Q00535)
T10 construct: purchased Eurofins Cerep SA (KinaseProfiler)
Description: as §1

MEK1(h) = biological target: T11, MEK1(h) (Homo sapiens, UniProt Q02750)
T11 construct: purchased Eurofins Cerep SA (KinaseProfiler)
Description: as §1

EphA1(h) = biological target: T12, EphA1(h) (Homo sapiens, UniProt P21709)
T12 construct: purchased Eurofins Cerep SA (KinaseProfiler)
T12 sequence (P21709 26-976): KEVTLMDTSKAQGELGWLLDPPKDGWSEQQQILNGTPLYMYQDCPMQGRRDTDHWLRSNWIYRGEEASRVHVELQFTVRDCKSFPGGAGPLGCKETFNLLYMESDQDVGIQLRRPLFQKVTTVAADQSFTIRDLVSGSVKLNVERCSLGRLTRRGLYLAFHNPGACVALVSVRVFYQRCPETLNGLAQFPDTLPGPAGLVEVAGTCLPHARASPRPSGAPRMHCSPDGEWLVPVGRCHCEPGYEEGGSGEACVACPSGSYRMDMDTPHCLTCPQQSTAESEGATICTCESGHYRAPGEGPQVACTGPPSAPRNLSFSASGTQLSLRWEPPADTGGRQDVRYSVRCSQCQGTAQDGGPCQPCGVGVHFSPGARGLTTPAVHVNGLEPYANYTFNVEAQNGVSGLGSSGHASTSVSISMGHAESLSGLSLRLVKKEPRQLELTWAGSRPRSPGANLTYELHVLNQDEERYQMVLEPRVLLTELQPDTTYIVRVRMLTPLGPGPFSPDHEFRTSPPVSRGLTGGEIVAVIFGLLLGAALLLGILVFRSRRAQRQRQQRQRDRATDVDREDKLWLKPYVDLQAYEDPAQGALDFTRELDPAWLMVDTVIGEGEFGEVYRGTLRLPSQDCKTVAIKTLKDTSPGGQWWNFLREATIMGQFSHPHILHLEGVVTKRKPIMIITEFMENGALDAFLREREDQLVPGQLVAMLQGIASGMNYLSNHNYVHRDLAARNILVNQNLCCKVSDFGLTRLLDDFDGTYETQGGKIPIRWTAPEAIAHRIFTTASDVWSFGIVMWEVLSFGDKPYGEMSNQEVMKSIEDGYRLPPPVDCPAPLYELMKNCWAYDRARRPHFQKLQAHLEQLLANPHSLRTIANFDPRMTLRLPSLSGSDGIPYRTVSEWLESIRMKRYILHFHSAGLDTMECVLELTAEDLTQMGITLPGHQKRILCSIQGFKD
Description: as §1

MINK(h) = biological target: T13, MINK(h) (Homo sapiens, UniProt Q8N4C8)
T13 construct: purchased Eurofins Cerep SA (KinaseProfiler)
Description: as §1

Ron(h) = biological target: T14, Ron(h) (Homo sapiens, UniProt Q04912)
T14 construct: purchased Eurofins Cerep SA (KinaseProfiler)
Description: as §1

LRRK2(h) = biological target: T15, LRRK2(h) (Homo sapiens, UniProt Q5S007)
T15 construct: purchased Eurofins Cerep SA (KinaseProfiler)
Description: as §1

HIPK2(h) = biological target: T16, HIPK2(h) (Homo sapiens, UniProt Q9H2X6)
T16 construct: purchased Eurofins Cerep SA (KinaseProfiler)
Description: as §1

JAK1(h) = biological target: T17, JAK1(h) (Homo sapiens, UniProt P23458)
T17 construct: purchased Eurofins Cerep SA (KinaseProfiler)
Description: as §1

CK1γ1(h) = biological target: T18, CK1γ1(h) (Homo sapiens, UniProt Q9HCP0)
T18 construct: purchased Eurofins Cerep SA (KinaseProfiler)
Description: as §1

PIP5K1g(h) = biological target: T19, PIP5K1g(h) (Homo sapiens, UniProt O60331)
T19 construct: purchased Eurofins Cerep SA (KinaseProfiler)
Description: as §1

SNRK(h) = biological target: T20, SNRK(h) (Homo sapiens, UniProt Q9NRH2)
T20 construct: purchased Eurofins Cerep SA (KinaseProfiler)
Description: as §1

Fgr(h) = biological target: T21, Fgr(h) (Homo sapiens, UniProt P09769)
T21 construct: purchased Eurofins Cerep SA (KinaseProfiler)
Description: as §1

CLK1(h) = biological target: T22, CLK1(h) (Homo sapiens, UniProt P49759)
T22 construct: purchased Eurofins Cerep SA (KinaseProfiler)
Description: as §1

PI3KC2g(h) = biological target: T23, PI3KC2g(h) (Homo sapiens, UniProt O75747)
T23 construct: purchased Eurofins Cerep SA (KinaseProfiler)
Description: as §1

MYLK2(h) = biological target: T24, MYLK2(h) (Homo sapiens, UniProt Q9H1R3)
T24 construct: purchased Eurofins Cerep SA (KinaseProfiler)
Description: as §1

CDK5/p35(h) = biological target: T25, CDK5/p35(h) (Homo sapiens, UniProt Q00535)
T25 construct: purchased Eurofins Cerep SA (KinaseProfiler)
Description: as §1

CLK3(h) = biological target: T26, CLK3(h) (Homo sapiens, UniProt P49761)
T26 construct: purchased Eurofins Cerep SA (KinaseProfiler)
Description: as §1

PKCα(h) = biological target: T27, PKCα(h) (Homo sapiens, UniProt P17252)
T27 construct: purchased Eurofins Cerep SA (KinaseProfiler)
Description: as §1

PDHK2(h) = biological target: T28, PDHK2(h) (Homo sapiens, UniProt Q15119)
T28 construct: purchased Eurofins Cerep SA (KinaseProfiler)
Description: as §1

CRIK(h) = biological target: T29, CRIK(h) (Homo sapiens, UniProt O14578)
T29 construct: purchased Eurofins Cerep SA (KinaseProfiler)
Description: as §1

STK39(h) = biological target: T30, STK39(h) (Homo sapiens, UniProt Q9UEW8)
T30 construct: purchased Eurofins Cerep SA (KinaseProfiler)
Description: as §1

GRK6(h) = biological target: T31, GRK6(h) (Homo sapiens, UniProt P43250)
T31 construct: purchased Eurofins Cerep SA (KinaseProfiler)
Description: as §1

Plk1(h) = biological target: T32, Plk1(h) (Homo sapiens, UniProt P53350)
T32 construct: purchased Eurofins Cerep SA (KinaseProfiler)
T32 sequence (P53350 whole entry): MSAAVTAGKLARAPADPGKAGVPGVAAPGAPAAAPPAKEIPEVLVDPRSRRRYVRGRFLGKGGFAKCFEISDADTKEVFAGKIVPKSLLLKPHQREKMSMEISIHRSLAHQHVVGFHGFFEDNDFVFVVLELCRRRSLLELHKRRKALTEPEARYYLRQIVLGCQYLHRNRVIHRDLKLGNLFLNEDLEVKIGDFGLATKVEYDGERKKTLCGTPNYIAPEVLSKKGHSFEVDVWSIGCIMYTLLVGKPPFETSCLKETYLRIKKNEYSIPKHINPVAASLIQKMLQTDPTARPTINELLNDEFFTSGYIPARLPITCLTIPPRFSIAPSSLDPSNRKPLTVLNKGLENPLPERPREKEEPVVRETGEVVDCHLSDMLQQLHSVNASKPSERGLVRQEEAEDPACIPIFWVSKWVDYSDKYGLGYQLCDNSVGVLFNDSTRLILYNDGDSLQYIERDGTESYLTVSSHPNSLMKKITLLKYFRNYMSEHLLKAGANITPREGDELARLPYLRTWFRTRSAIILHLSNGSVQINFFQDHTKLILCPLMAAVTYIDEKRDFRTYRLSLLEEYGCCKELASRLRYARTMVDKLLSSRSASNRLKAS
Description: as §1

LATS1(h) = biological target: T33, LATS1(h) (Homo sapiens, UniProt O95835)
T33 construct: purchased Eurofins Cerep SA (KinaseProfiler)
T33 sequence (O95835 whole entry): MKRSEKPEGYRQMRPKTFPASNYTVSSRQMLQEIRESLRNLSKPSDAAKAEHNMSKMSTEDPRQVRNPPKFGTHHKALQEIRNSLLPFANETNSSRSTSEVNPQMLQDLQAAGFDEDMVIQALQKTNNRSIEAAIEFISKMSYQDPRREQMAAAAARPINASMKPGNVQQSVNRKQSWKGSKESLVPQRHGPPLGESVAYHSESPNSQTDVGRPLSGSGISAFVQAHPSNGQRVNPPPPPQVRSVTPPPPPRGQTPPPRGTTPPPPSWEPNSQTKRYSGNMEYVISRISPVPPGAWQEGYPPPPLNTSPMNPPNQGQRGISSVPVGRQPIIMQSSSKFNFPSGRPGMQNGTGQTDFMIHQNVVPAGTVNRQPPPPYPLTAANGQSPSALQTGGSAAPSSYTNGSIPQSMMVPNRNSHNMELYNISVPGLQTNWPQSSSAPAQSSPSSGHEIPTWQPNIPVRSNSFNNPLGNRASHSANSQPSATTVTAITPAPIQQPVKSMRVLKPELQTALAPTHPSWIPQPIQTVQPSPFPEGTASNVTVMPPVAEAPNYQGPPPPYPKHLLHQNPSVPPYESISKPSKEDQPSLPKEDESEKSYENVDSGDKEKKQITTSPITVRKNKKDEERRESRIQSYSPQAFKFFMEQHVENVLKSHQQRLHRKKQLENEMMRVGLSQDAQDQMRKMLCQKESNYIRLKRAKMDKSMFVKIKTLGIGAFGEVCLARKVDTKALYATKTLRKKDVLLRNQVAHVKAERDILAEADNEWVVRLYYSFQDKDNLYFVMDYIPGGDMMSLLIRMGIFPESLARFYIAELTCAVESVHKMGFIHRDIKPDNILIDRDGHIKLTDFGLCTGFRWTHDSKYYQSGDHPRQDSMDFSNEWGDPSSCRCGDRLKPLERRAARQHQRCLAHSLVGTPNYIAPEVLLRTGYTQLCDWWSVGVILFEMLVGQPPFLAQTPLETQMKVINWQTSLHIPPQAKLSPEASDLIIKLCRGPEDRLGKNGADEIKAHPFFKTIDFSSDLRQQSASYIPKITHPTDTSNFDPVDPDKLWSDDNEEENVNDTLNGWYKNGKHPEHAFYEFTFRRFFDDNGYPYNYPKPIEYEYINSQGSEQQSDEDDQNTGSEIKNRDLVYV
Description: as §1

TLK2(h) = biological target: T34, TLK2(h) (Homo sapiens, UniProt Q86UE8)
T34 construct: purchased Eurofins Cerep SA (KinaseProfiler)
Description: as §1

PKCζ(h) = biological target: T35, PKCζ(h) (Homo sapiens, UniProt Q05513)
T35 construct: purchased Eurofins Cerep SA (KinaseProfiler)
Description: as §1

CLIK1(h) = biological target: T36, CLIK1(h) (Homo sapiens, UniProt Q8TDR2)
T36 construct: purchased Eurofins Cerep SA (KinaseProfiler)
Description: as §1

DDR2(h) = biological target: T37, DDR2(h) (Homo sapiens, UniProt Q16832)
T37 construct: purchased Eurofins Cerep SA (KinaseProfiler)
T37 sequence (Q16832 22-855): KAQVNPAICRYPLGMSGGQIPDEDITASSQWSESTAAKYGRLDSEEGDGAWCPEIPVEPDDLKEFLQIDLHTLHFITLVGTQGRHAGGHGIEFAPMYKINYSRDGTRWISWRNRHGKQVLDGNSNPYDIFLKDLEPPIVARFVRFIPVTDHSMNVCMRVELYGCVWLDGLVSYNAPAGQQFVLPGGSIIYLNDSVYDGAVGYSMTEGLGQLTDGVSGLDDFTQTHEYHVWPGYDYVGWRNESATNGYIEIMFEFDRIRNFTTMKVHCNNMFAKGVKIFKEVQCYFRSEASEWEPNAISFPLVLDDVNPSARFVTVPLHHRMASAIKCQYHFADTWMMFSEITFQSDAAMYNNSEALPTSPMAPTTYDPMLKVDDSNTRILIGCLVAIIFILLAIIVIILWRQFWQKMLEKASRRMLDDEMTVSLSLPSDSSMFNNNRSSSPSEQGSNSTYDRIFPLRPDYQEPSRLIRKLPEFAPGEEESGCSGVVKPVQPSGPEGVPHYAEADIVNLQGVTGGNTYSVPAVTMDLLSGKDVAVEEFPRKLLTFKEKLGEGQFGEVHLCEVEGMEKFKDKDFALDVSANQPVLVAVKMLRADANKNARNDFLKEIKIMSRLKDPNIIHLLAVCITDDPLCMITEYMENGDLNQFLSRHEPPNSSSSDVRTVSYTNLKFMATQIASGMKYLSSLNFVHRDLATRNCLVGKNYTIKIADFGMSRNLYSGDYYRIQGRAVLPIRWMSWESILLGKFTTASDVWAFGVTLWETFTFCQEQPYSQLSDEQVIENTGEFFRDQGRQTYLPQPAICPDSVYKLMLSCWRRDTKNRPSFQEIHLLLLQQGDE
Description: as §1

DYRK2(h) = biological target: T38, DYRK2(h) (Homo sapiens, UniProt Q92630)
T38 construct: purchased Eurofins Cerep SA (KinaseProfiler)
Description: as §1

Itk(h) = biological target: T39, Itk(h) (Homo sapiens, UniProt Q08881)
T39 construct: purchased Eurofins Cerep SA (KinaseProfiler)
T39 sequence (Q08881 whole entry): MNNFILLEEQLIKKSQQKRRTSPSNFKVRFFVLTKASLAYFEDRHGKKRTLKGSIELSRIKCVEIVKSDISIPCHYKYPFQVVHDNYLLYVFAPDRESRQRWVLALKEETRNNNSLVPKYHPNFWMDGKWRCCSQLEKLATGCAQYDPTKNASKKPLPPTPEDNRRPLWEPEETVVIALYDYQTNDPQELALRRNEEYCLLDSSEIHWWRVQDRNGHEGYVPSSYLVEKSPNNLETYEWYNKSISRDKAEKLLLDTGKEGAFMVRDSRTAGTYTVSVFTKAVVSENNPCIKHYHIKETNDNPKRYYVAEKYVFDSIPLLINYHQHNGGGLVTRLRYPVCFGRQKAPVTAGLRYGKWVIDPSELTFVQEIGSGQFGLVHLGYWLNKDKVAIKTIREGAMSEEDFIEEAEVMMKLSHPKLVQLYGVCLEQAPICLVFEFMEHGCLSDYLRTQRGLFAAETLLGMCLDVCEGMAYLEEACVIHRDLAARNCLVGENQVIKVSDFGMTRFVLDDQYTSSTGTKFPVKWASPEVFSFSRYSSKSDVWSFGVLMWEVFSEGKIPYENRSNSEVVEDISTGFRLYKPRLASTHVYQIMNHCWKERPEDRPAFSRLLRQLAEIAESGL
Description: as §1

MLK1(h) = biological target: T40, MLK1(h) (Homo sapiens, UniProt P80192)
T40 construct: purchased Eurofins Cerep SA (KinaseProfiler)
Description: as §1

EphA2(h) = biological target: T41, EphA2(h) (Homo sapiens, UniProt P29317)
T41 construct: purchased Eurofins Cerep SA (KinaseProfiler)
Description: as §1

Q: Which inhibition at 1 µM (PRK2(h)) does the source give for `CN(C)Cc1cccc(Nc2ncc(Cl)c(-c3csc(C(=O)NN4CCOCC4)c3)n2)c1` [SKLB-D18, 4-(5-chloro-2-((3-((dimethylamino)methyl)phenyl)amino)pyrimidin-4-yl)-N-morpholinothiophene-2-carboxamide] here?
A: The inhibition at 1 µM was 64%.

Q: What about the inhibition at 1 µM (DAPK2(h)) of the same compound?
A: Its inhibition at 1 µM is 53%.

Q: And the inhibition at 1 µM (CDK16/cyclinY(h))?
A: Its inhibition at 1 µM is 66%.

Q: And the inhibition at 1 µM (GRK1(h))?
A: The inhibition at 1 µM was 9%.

Q: And the inhibition at 1 µM (MATK(h))?
A: Its inhibition at 1 µM is 2%.

Q: What about the inhibition at 1 µM (MSSK1(h)) of the same compound?
A: Its inhibition at 1 µM is -19%.

Q: And the inhibition at 1 µM (SRPK2(h))?
A: Its inhibition at 1 µM is 9%.

Q: And the inhibition at 1 µM [1]?
A: The inhibition at 1 µM was -2%.

Q: What about the inhibition at 1 µM (DCAMKL2(h)) of the same compound?
A: Its inhibition at 1 µM is 55%.

Q: And the inhibition at 1 µM (CDK5/p25(h))?
A: The inhibition at 1 µM was 55%.

Q: And the inhibition at 1 µM (MEK1(h))?
A: The inhibition at 1 µM was 15%.

Q: And the inhibition at 1 µM (EphA1(h))?
A: The inhibition at 1 µM was 10%.

Q: What about the inhibition at 1 µM (MINK(h)) of the same compound?
A: The inhibition at 1 µM was 22%.

Q: And the inhibition at 1 µM (Ron(h))?
A: Its inhibition at 1 µM is 58%.

Q: And the inhibition at 1 µM (LRRK2(h))?
A: The inhibition at 1 µM was 65%.

Q: And the inhibition at 1 µM (HIPK2(h))?
A: Its inhibition at 1 µM is 67%.

Q: What about the inhibition at 1 µM (JAK1(h)) of the same compound?
A: The inhibition at 1 µM was 59%.

Q: And the inhibition at 1 µM (CK1γ1(h))?
A: Its inhibition at 1 µM is 16%.

Q: And the inhibition at 1 µM (PIP5K1g(h))?
A: Its inhibition at 1 µM is -4%.

Q: What about the inhibition at 1 µM (SNRK(h)) of the same compound?
A: Its inhibition at 1 µM is -14%.

Q: And the inhibition at 1 µM (Fgr(h))?
A: Its inhibition at 1 µM is 42%.

Q: What about the inhibition at 1 µM (CLK1(h)) of the same compound?
A: Its inhibition at 1 µM is 17%.

Q: And the inhibition at 1 µM (PI3KC2g(h))?
A: The inhibition at 1 µM was -7%.

Q: And the inhibition at 1 µM (MYLK2(h))?
A: Its inhibition at 1 µM is 68%.

Q: What about the inhibition at 1 µM (CDK5/p35(h)) of the same compound?
A: Its inhibition at 1 µM is 57%.

Q: And the inhibition at 1 µM (CLK3(h))?
A: Its inhibition at 1 µM is 11%.

Q: What about the inhibition at 1 µM (PKCα(h)) of the same compound?
A: The inhibition at 1 µM was 21%.

Q: What about the inhibition at 1 µM (PDHK2(h)) of the same compound?
A: Its inhibition at 1 µM is 14%.

Q: And the inhibition at 1 µM (CRIK(h))?
A: The inhibition at 1 µM was 19%.

Q: And the inhibition at 1 µM (STK39(h))?
A: Its inhibition at 1 µM is 37%.

Q: And the inhibition at 1 µM (GRK6(h))?
A: The inhibition at 1 µM was 2%.

Q: And the inhibition at 1 µM (Plk1(h))?
A: The inhibition at 1 µM was -5%.

Q: And the inhibition at 1 µM (LATS1(h))?
A: The inhibition at 1 µM was 21%.

Q: And the inhibition at 1 µM (TLK2(h))?
A: Its inhibition at 1 µM is 52%.

Q: What about the inhibition at 1 µM (PKCζ(h)) of the same compound?
A: The inhibition at 1 µM was -15%.

Q: And the inhibition at 1 µM (CLIK1(h))?
A: The inhibition at 1 µM was 12%.

Q: And the inhibition at 1 µM (DDR2(h))?
A: The inhibition at 1 µM was -2%.

Q: What about the inhibition at 1 µM (DYRK2(h)) of the same compound?
A: Its inhibition at 1 µM is 41%.

Q: What about the inhibition at 1 µM (Itk(h)) of the same compound?
A: Its inhibition at 1 µM is 23%.

Q: And the inhibition at 1 µM (MLK1(h))?
A: The inhibition at 1 µM was 61%.

Q: And the inhibition at 1 µM (EphA2(h))?
A: The inhibition at 1 µM was 17%.
